Measured values taken from ChEMBL document CHEMBL3992544, “Novel 6-methoxycarbonyl indolinones bearing a pyrrole Mannich base moiety as angiokinase inhibitors” (Bioorg Med Chem, 2017).
pIC50: −log10 of the molar value.

How the values were obtained:
[1] = biological target: Platelet-derived growth factor receptor beta (Homo sapiens, UniProt P09619); test: Inhibition of human N-terminal GST-tagged PDGFRbeta cytoplasmic domain (557 to 1106 residues) expressed in baculovirus expression system preincubated for 10 mins followed by FAM-labeled peptide substrate addition measured after 1 hr by mobility shift assay
SK-OV-3 = test: Antiproliferative activity against human SKOV3 cells after 72 hrs by MTT assay; conditions: SK-OV-3, 72 h
HeLa = test: Antiproliferative activity against human HeLa cells after 72 hrs by MTT assay
HT-29 [2] = test: Antiproliferative activity against human HT-29 cells after 72 hrs by MTT assay; conditions: HT-29, 72 h
[3] = biological target: Fibroblast growth factor receptor 1 (Homo sapiens, UniProt P11362); test: Inhibition of recombinant human GST-tagged FGFR1 cytoplasmic domain (398 to 822 residues) expressed in baculovirus expression system preincubated for 10 mins followed by FAM-labeled peptide substrate addition measured after 1 hr by mobility shift assay
[4] = biological target: Vascular endothelial growth factor receptor 1 (Homo sapiens, UniProt P17948); test: Inhibition of recombinant human GST-tagged VEGFR1 cytoplasmic domain (781 to 1338 residues) expressed in baculovirus expression system preincubated for 10 mins followed by FAM-labeled peptide substrate addition measured after 1 hr by mobility shift assay
HT-29 [5] = test: Induction of apoptosis in human HT-29 cells after 48 hrs by acridine orange/ethidium bromide staining based confocal laser scanning microscopic method; type: functional, cell-based

Platelet-derived growth factor receptor beta, sequence (P09619 whole entry, the tested form may be a part): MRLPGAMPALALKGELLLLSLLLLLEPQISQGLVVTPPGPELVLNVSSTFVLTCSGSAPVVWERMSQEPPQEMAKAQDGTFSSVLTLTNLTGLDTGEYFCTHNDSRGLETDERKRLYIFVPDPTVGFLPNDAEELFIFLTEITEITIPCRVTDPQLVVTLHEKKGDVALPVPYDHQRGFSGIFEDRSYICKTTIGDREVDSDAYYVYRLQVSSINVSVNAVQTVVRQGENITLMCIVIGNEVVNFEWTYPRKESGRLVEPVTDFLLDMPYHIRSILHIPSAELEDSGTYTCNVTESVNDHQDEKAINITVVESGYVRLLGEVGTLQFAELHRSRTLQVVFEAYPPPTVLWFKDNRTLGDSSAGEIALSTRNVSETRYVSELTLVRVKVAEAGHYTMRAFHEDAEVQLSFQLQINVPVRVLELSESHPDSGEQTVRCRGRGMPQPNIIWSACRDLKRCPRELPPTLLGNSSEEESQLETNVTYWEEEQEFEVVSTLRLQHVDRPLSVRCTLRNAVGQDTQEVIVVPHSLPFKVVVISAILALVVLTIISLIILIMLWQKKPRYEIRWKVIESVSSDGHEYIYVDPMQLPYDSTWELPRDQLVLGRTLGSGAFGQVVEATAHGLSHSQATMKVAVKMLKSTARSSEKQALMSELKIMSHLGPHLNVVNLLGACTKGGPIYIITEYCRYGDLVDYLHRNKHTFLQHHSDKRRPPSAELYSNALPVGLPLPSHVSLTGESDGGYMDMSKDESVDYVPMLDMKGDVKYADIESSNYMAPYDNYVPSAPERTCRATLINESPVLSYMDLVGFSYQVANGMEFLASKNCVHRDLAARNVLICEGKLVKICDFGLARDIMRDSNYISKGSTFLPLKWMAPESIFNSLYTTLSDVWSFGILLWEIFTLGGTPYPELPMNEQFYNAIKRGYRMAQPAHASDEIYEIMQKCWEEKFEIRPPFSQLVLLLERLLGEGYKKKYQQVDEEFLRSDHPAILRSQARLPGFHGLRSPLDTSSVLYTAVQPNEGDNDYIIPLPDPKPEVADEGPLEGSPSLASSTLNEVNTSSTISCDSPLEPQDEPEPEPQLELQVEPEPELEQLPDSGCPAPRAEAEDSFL
Fibroblast growth factor receptor 1, sequence (P11362 whole entry, the tested form may be a part): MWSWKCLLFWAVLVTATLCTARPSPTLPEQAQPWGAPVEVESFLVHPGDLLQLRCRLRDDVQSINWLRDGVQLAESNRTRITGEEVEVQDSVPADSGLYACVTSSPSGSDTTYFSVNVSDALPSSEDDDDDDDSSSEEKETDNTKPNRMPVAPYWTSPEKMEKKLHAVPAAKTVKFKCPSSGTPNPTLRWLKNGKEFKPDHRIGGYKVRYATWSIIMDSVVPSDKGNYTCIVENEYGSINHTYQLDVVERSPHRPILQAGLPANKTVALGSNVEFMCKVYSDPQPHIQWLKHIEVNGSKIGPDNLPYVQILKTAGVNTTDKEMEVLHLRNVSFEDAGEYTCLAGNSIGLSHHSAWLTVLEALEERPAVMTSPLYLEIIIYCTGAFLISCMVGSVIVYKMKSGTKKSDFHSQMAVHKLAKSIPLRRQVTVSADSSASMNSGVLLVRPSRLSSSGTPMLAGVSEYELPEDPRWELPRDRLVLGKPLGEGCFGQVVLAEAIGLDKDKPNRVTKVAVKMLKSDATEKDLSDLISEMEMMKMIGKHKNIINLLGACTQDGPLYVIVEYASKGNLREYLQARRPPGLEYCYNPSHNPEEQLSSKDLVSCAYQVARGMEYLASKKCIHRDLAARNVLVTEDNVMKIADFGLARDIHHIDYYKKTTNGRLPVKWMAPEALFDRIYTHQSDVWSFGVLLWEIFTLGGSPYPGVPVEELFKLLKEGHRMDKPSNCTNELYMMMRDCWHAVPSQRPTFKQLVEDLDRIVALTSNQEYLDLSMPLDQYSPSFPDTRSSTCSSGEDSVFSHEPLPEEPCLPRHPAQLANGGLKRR
Vascular endothelial growth factor receptor 1, sequence (P17948 whole entry, the tested form may be a part): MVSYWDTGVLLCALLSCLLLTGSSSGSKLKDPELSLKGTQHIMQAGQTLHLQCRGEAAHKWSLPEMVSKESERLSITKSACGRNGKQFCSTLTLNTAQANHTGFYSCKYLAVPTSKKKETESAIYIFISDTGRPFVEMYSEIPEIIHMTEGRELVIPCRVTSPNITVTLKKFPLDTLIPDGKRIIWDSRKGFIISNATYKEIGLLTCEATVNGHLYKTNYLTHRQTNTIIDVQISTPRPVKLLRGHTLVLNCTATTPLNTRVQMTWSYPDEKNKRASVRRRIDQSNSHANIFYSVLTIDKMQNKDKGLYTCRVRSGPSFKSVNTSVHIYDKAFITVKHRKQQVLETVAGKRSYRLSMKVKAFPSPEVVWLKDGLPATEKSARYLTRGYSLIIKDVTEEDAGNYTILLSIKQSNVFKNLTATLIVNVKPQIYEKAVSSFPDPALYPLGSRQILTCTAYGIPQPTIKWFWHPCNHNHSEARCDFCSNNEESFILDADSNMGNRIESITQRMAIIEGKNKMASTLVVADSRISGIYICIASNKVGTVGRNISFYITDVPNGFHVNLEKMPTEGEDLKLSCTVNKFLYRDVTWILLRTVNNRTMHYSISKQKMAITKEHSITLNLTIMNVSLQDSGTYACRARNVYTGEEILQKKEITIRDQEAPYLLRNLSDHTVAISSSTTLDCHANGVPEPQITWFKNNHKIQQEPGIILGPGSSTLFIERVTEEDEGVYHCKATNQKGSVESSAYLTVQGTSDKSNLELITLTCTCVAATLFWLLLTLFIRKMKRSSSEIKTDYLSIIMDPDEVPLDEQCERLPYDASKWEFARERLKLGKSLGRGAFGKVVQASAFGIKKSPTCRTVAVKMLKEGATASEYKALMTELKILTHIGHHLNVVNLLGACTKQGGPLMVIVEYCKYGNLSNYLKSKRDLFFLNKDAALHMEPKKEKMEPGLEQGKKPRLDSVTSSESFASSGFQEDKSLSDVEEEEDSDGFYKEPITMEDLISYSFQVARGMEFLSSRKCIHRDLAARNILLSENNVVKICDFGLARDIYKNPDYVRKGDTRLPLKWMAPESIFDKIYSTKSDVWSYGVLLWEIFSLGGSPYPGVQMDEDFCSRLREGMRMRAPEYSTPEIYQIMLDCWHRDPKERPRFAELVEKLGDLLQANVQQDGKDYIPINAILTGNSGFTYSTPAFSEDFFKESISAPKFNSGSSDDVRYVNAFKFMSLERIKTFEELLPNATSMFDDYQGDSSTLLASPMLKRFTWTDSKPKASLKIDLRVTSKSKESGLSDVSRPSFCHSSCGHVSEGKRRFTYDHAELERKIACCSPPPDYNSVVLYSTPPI

| Compound | pIC50 [1] | pIC50 (SK-OV-3) | pIC50 (HeLa) | pIC50 (HT-29 [2]) | also measured |
| --- | --- | --- | --- | --- | --- |
| COC(=O)c1ccc2c(c1)NC(=O)/C2=C(\Nc1ccc(-n2cccc2CN2CCNCC2)cc1)c1ccccc1 | 7.19 |  |  |  |  |
| COC(=O)c1ccc2c(c1)NC(=O)/C2=C(\Nc1ccc(-n2cccc2CN2CCCCC2)cc1)c1ccccc1 | 7.34 |  |  |  |  |
| COC(=O)c1ccc2c(c1)NC(=O)/C2=C(\Nc1ccc(-n2cccc2CN2CCCC2)cc1)c1ccccc1 | 7.57 |  |  |  |  |
| CCN(CC)Cc1cccn1-c1ccc(N/C(=C2\C(=O)Nc3cc(C(=O)OC)ccc32)c2ccccc2)cc1 | 7.50 |  |  |  |  |
| COC(=O)c1ccc2c(c1)NC(=O)/C2=C(\Nc1ccc(N(C)C(=O)CN2CCN(C)CC2)cc1)c1ccccc1 [NINTEDANIB] |  | 4.54 | 4.29 | 5.31 |  |
| COC(=O)c1ccc2c(c1)NC(=O)/C2=C(\Nc1ccc(-n2cccc2CN2CCN(C)CC2)cc1)c1ccccc1 | 7.08 | 4.59 | 4.52 | 5.51 |  |
| COC(=O)c1ccc2c(c1)NC(=O)/C2=C(\Nc1ccc(-n2cccc2CN(C)C)cc1)c1ccccc1 | 7.84 | 5.28 | 4.27 | 6.01 | pIC50 [3]: < 6.30; pIC50 [4]: 7.00; Activity (HT-29 [5]): Dose-dependent effect |
| COC(=O)c1ccc2c(c1)NC(=O)/C2=C(\Nc1ccc(Cn2cccc2CN2CCN(C)CC2)cc1)c1ccccc1 | 7.17 |  |  |  |  |
| COC(=O)c1ccc2c(c1)NC(=O)/C2=C(\Nc1ccc(Cn2cccc2CN(C)C)cc1)c1ccccc1 | 7.53 |  |  |  |  |
